According to US20230338307A1, “PROPHYLACTIC AGENT, AMELIORATING AGENT, AND THERAPEUTIC AGENT FOR DRY EYE” (TSUBOTA LABORATORY, INC., priority 2020, published 2023):

Legend:
dry eye model [1] = experiment: Fluorescein staining score, 0.2% benzalkonium chloride dry eye model, Comparative Study 2 (Example 5); format: in vivo, mice
Source text: After acclimating male C57BL6 mice (7 weeks old) to the experimental environment, those with almost uniform weight values and no eye abnormalities were divided into the following groups (n=3 to 4). • 7 weeks old/normal (non-dry eye group) • 7 weeks old/dry eye model+control (solvent eye drop) group • 7 weeks old/dry eye model+0.003% (w/v) apocynin eye drop group • 7 weeks old/dry eye model+0.03% (w/v) apocynin eye drop group • 7 weeks old/dry eye model+3% diquafosol sodium eye drop group • 7 weeks old/dry eye model+0.5% (w/v) hyaluronic acid eye drop group A dry eye model was created by instilling 3 μL of the 0.2% benzalkonium chloride solution into each of both eyes twice a day for 8 days. Then, the control group received PBS alone, and the test group received 0.003% (w/v), 0.03% (w/v) apocynin and 0.5% (w/v) hyaluronic acid in PBS. The 3% diquafosol sodium eye drop was instilled into each of both eyes at 3 μL, twice a day for 9 days. In Example 5, 1, 2, 5, and 9 days after the start of instillation of the comparative test drug, 1 μL of 0.1% sodium fluorescein solution was instilled into each of both eyes. Fluorescein-stained images were observed under a blue filter using a slit lamp (Kowa Co., Ltd., SL-17), and the degree of corneal epithelial damage was scored.

dry eye model [2] = experiment: Fluorescein staining score (corneal damage), dry eye model by systemic erlotinib (Example 3); format: in vivo, mice; conditions: 0.003% (w/v) apocynin eye drop twice a day, one week after start, FIG. 6
Protocol: After acclimating male C57BL6 mice (7 weeks old) to the experimental environment, those with almost uniform body weight values and no eye abnormalities were divided into the following 3 groups (n=4). • 7 weeks old/normal (non-dry eye group) • 7 weeks old/dry eye model+control (solvent eye drop) group • 7 weeks old/dry eye model+apocynin eye drop group The dry eye model was prepared by dissolving erlotinib at a concentration of 5 mg/ml in 0.5% methylcellulose solution and administering it by intraperitoneal injection at a concentration of 50 mg/kg/day daily from the start of the study. The solvent 0.5% methylcellulose solution was similarly administered to the normal non-administration group. After one week of administration of erlotinib, the control group received PBS alone, and the test group received a solution of 0.003% (w/v) apocynin suspended in PBS twice a day at both eyes with 3 μL each. One week after the start of instillation, 1 μL of 0.1% sodium fluorescein solution was instilled into each of both eyes under isoflurane anesthesia, and the BUT test was performed under a blue filter using a slit lamp (Kowa Co., Ltd., SL-17) (FIG. 5). In Example 3, one week after the start of apocynin instillation, photographs were taken under isoflurane anesthesia, and the degree of corneal damage was scored (FIG. 6).

dry eye model [3] = experiment: Fluorescein staining score (corneal epithelial damage), dry eye model by erlotinib instillation (Example 1); format: in vivo; conditions: 0.003% (w/v) apocynin eye drop twice daily, two weeks; erlotinib-instilled mice; FIG. 3
Source text: After acclimating male C57BL6 mice (7 weeks old) to the experimental environment, those with almost uniform body weight values and no eye abnormalities were divided into the following 3 groups (n=5). • 7 weeks old/normal (non-dry eye group) • 7 weeks old/dry eye model+control (solvent eye drop) group • 7 weeks old/dry eye model+apocynin eye drop group The dry eye model was created by daily instillation of an EGF receptor inhibitor (erlotinib) based on the method of Yang et al. In this model, administration of erlotinib causes dry eye symptoms such as shortened BUT, decreased tear volume, and corneal damage after 1 week of administration (Non-patent Document 3). After 20 μM of erlotinib was instilled for 2 weeks, the control group received PBS alone, and the test group received 3 μL of a suspension of 0.003% (w/v) apocynin in PBS twice daily. […] Under anesthesia, the tip of a Schirmer test paper cut to 1 mm width was inserted into the conjunctival sac of the lower eyelid of the mouse, the test paper was removed after 5 minutes, the length of the wetted part was read in units of 0.5 mm, and the value was used as the tear volume (FIG. 2). In the dry eye model prepared in Example 1, after BUT measurement, fluorescein-stained images were photographed under a blue filter using a slit lamp (Kowa Co., Ltd., SL-17), and corneal epithelial damage was analyzed (FIG. 3). […]

dry eye model [4] = experiment: Fluorescein staining score, dry eye model by 0.2% benzalkonium chloride instillation (Example 2); format: in vivo, mice; conditions: 0.003% (w/v) apocynin in PBS, 3 μL 4 times daily, two days after start; 0.2% benzalkonium chloride model; FIG. 4
Source text: After acclimating male C57BL6 mice ([…]) to the experimental environment, those with almost uniform weight values and no eye abnormalities were divided into the following 3 groups (n=3). • 7 weeks old/normal (non-dry eye group) • 7 weeks old/dry eye model+control (solvent eye drop) group • 7 weeks old/dry eye model+apocynin eye drop group The dry eye model was created by instilling a 0.2% benzalkonium chloride solution based on the method of Lin et al. (Non-patent Document 4). In this model, instillation of the 0.2% benzalkonium chloride solution causes dry eye symptoms such as shortened BUT, decreased tear volume, and corneal epithelial damage after 1 day of administration (Non-patent Document 4). After the benzalkonium chloride solution was instilled twice daily for 2 days, PBS alone was administered to the control group, and for the test group, a solution of apocynin 0.003% (w/v) suspended in PBS was administered to both eyes at 3 μL each, 4 times daily. Two days after the start of apocynin instillation, 1 μL of 0.1% fluorescein sodium solution was instilled into each of both eyes under isoflurane anesthesia, and stained images were taken under a blue filter using a slit lamp (Kowa Co., Ltd., SL-17). The fluorescein staining scores were analyzed (FIG. 4).

dry eye model [5] = experiment: Schirmer test (tear volume), benzalkonium chloride dry eye model, Comparative Study 1 (Example 4); format: in vivo, mice; conditions: 0.1% (w/v) apocynin in 0.5% methylcellulose twice a day, 3 days after start; versus 0.5% (w/v) hyaluronic acid group; FIG. 8
Protocol: After acclimating male C57BL6 mice (7 weeks old) to the experimental environment, those with almost uniform weight values and no eye abnormalities were divided into the following groups (n=4). • 7 weeks old/normal (non-dry eye group) • 7 weeks old/dry eye model+control (solvent eye drop) group • 7 weeks old/dry eye model+0.1% (w/v) apocynin eye drop group • 7 weeks old/dry eye model+0.5% (w/v) hyaluronic acid eye drop group A dry eye model was prepared by instilling the benzalkonium chloride solution at 3 μL each eye, twice a day for 8 days. After that, the control group received the 0.5% methylcellulose solution alone, and the test group received 0.1% (w/v) apocynin or 0.5% (w/v) hyaluronic acid suspended in the 0.5% methylcellulose solution twice a day for 15 days at 3 μL for each of both eyes. Schirmer's test was performed 1, 3, 6, and 8 days after the start of instillation of the comparative test drug, and tear volume was evaluated.

Q: For `COc1cc(C(C)=O)ccc1O` [apocynin, 4-hydroxy-3-methoxyacetophenone], which “fluorescein staining score (corneal epithelial damage)” value (dry eye model [1]; 0.003% apocynin eye drop, 9 days after start, compared to control, hyaluronic acid and diquafosol sodium groups, FIG. 11B) is on record?
A: significantly improved

Q: And the “fluorescein staining score (corneal epithelial damage)” value (dry eye model [1]; 0.03% apocynin eye drop, 9 days after start, compared to control, hyaluronic acid and diquafosol sodium groups, FIG. 11B)?
A: significantly improved

Q: What about the “fluorescein staining score (corneal epithelial damage)” value (dry eye model [1]; two days after start, compared with control, 0.03% apocynin, 0.5% (w/v) hyaluronic acid or 3% diquafosol sodium twice a day, FIG. 11A) of the same compound?
A: decreased significantly

Q: And the “corneal epithelial damage (fluorescein staining score)” value (dry eye model [2])?
A: significantly improved

Q: What about the “corneal epithelial damage (fluorescein staining score)” value (dry eye model [3]) of the same compound?
A: significant improvement was observed

Q: And the “corneal epithelial damage (fluorescein staining score)” value (dry eye model [4])?
A: significantly improved

Q: What about the “tear volume (Schirmer test)” value (dry eye model [5]) of the same compound?
A: marked improvement in the tear volume compared to the hyaluronic acid eye drop group
